Where a name gives a salt, the structure may show the parent alone.
test system: A2780 cells; test: In vitro cell proliferation assay (WST-1 assay); assay type: cell-based; conditions: Homo sapiens, total incubation time 72 h, WST-1 readout
Method: A2780 cells were seeded in 96-well plates at 3×10^3 cells/well in 100 μL of culture medium, 8 wells were left empty for media only controls.
After 24 h the compound titrations were performed, in a separate dilution plate, by serially diluting the compounds of general formula (I) in culture medium. A 100 μL of each dilution was added to the plated cells, this was done in triplicate, and controls (e.g. DMSO and blanks) were included. The plates were incubated for 24 h at 37° C. in a CO2 incubator. The compound titrations were repeated in a separate dilution plate after 24 h. The media plus compound from the assay plates were then aspirated. A 100 μL of media was then added to all wells, followed by 100 μL of each compound dilution. The plates were incubated for a further 48 h at 37° C. in a CO2 incubator (total incubation time 72 h). The number of viable cells was then assessed using Cell Proliferation Reagent WST-1. 10 μL of WST-1 reagent added to each well and incubated for one to four hours at 37° C. in CO2 incubator. The absorbance was measured (450 nm/690 nm).
The activity of compounds of general formula (I) in reducing the number of viable cells was calculated as:
% activity=[(S^c−B)/(S^o−B)]×100
S^c denotes signal measured in the presence of test compound, S^o denotes signal detected in the absence of compound, and B denotes background signal, measured in blank wells containing medium only. Analyse data using GraphPad Prism.

Row | Structure (SMILES) | IC50 [nM]
1 | O=c1c(NCCCCCCCCN(CCCN2CCOCC2)S(=O)(=O)C2CCCC2)c(Nc2ccncc2)c1=O [Compound 1016, N-(8-(3,4-dioxo-2-(pyridin-4-ylamino)cyclobut-1-enylamino)octyl)-N-(3-morpholinopropyl)cyclopentanesulfonamide] | 0.44
2 | CCN(CCCCCCCCNC(=O)NCc1cccnc1)OCc1ccccc1 [Compound 1081, 1-(8-(benzyloxy(ethyl)amino)octyl)-3-(pyridin-3-ylmethyl)urea oxalate] | 0.55
3 | N#C/N=C(\NCCCCCCCCNOCC1CCCCC1)Nc1ccncc1 [Compound 1107, 2-cyano-1-(8-(cyclohexylmethoxyamino)octyl)-3-(pyridin-4-yl)guanidine] | 0.57
4 | O=C(NCCCCCCCCN(CCCN1CCOCC1)C(=O)c1ccccc1)NCc1cccnc1 [Compound 1073, N-(3-morpholinopropyl)-N-(8-(3-(Pyridin-3-ylmethyl)ureido)octyl)benzamide] | 0.31
5 | N#C/N=C(\NCCCCCCCN(CCCN1CCOCC1)C1CCCCC1)Nc1ccncc1 [Compound 1002, 2-cyano-1-(7-(cyclohexyl(3-morpholinopropyl)amino)heptyl)-3-(pyridin-4-yl)guanidine] | 2.03
6 | CS(=O)(=O)N(CCCCCCN/C(=N\C#N)Nc1ccncc1)OCC1CCCCC1 [Compound 1112, N-(6-(2-cyano-3-(pyridin-4-yl)guanidino)hexyl)-N-(cyclohexylmethoxy)methanesulfonamide] | 0.086

Stronger by IC50, values ahead:

Row | IC50 [nM] | Structure (SMILES)
7 | 0.062 | CCON(CCCCCCCCN/C(=N\C#N)Nc1ccncc1)Cc1ccccc1 [Compound 1085, 1-(8-(benzyl(ethoxy)amino)octyl)-2-cyano-3-(pyridin-4-yl)guanidine]
8 | 0.018 | CS(=O)(=O)N(CCCCCCCCN/C(=N\C#N)Nc1ccncc1)OCc1ccccc1 [Compound 1020]
9 | 0.057 | CCNC(=O)N(CCCCCCCCN/C(=N\C#N)Nc1ccncc1)OCC1CCCCC1 [Compound 1125, 1-(8-(2-cyano-3-(pyridin-4-yl)guanidino)octyl)-N-(cyclohexylmethoxy)-3-ethylurea]
10 | 0.081 | CS(=O)(=O)N(CCCCCN/C(=N\C#N)Nc1ccncc1)OCC1CCCCC1 [Compound 1143]
11 | 0.056 | CNC(=S)N(CCCCCCN/C(=N\C#N)Nc1ccncc1)OCC1CCCCC1 [Compound 1116, 1-(6-(2-cyano-3-(pyridin-4-yl)guanidino)hexyl)-1-(cyclohexylmethoxy)-3-methylthiourea]
12 | 0.075 | N#C/N=C(\NCCCCCCCCN(CCCN1CCOCC1)C(=O)c1ccccc1)Nc1cccnc1 [Compound 1076, N-(8-(2-cyano-3-(pyridin-3-yl)guanidino)octyl)-N-(3-morpholinopropyl)benzamide]
13 | 0.025 | N#C/N=C(\NCCCCCCCN(OC1CCCCO1)S(=O)(=O)Cc1ccccc1)Nc1ccncc1 (centres unmarked) [Compound 1055]
14 | 0.042 | N#C/N=C(\NCCCCCCCCN(CCCN1CCOCC1)S(=O)(=O)c1ccccc1)Nc1ccncc1 [Compound 1035, N-(8-(2-cyano-3-(pyridin-4-yl)guanidino)octyl)-N-(3-morpholinopropyl)benzenesulfonamide]
